pIC50: −log10 of the molar value.
Legend:
HeLa cells [1] = assay type: cell-based, human
[2] = test system: retrograde transport of Shiga toxin subunit B (StxB); assay type: cell-based
HeLa cells [3] = assay: cells; assay type: cell-based; conditions: Homo sapiens

Compound | R (Stx), protective index (HeLa cells [1]) | retrograde transport, % control [2] | pIC50 (HeLa cells [3])
Cc1nc(-c2ccc(C3N(C)c4ccccc4C(=O)N3c3ccccc3)s2)cs1 (stereo not shown) [Compound 42, 1-Methyl-2-(5-(2-methylthiazol-4-yl)thiophen-2-yl)-3-phenyl-2,3-dihydroquinazolin-4(1H)-one] | 85 | 0.0% | 
COc1ccccc1N1C(=O)c2ccccc2N(C)C1c1ccc(C)s1 (stereo not shown) [Compound 56, 3-(2-Methoxyphenyl)-1-methyl-2-(5-methylthiophen-2-yl)-2,3-dihydroquinazolin-4(1H)-one] | 26 |  | 5.27
Cc1ccc(C2N(C)c3ccccc3C(=O)N2c2ccccc2F)s1 (stereo not shown) [Compound 58, 3-(2-Fluorophenyl)-1-methyl-2-(5-methylthiophen-2-yl)-2,3-dihydroquinazolin-4(1H)-one] | 25 |  | 5.26
CSc1ccc(C2Nc3ccccc3C(=O)N2c2ccccc2)s1 (stereo not shown) [Compound 17, 2-(5-(Methylthio)thiophen-2-yl)-3-phenyl-2,3-dihydroquinazolin-4(1H)-one] | 43 | 22.8% | 
CN1c2ccccc2C(=O)N(c2ccccc2)C1c1ccc(-c2cccs2)s1 (stereo not shown) [Compound 39, 2-([2,2′-Bithiophen]-5-yl)-1-methyl-3-phenyl-2,3-dihydroquinazolin-4(1H)-one] | 36 | 6.2% | 
CN1c2ccccc2C(=O)N(c2ccccc2)C1c1ccc(-c2csc(CN=[N+]=[N-])n2)s1 (stereo not shown) [Compound 63, 2-(5-(2-(Azidomethyl)thiazol-4-yl)thiophen-2-yl)-1-methyl-3-phenyl-2,3-dihydroquinazolin-4(1H)-one] |  |  | 5.30 to 5.52
C=CCOC(=O)c1ccccc1N1C(=O)c2ccccc2N(C)C1c1ccc(C)s1 (stereo not shown) [Compound 67, Allyl 2-(1-methyl-2-(5-methylthiophen-2-yl)-4-oxo-1,4-dihydroquinazolin-3(2H)-yl)benzoate] |  |  | 4.89
CN1c2ccccc2C(=O)N(c2ccccc2)C1c1ccc(-c2ccccc2)s1 (stereo not shown) [Compound 36, 1-Methyl-3-phenyl-2-(5-phenylthiophen-2-yl)-2,3-dihydroquinazolin-4(1H)-one] | 29 | 7.1% | 
CN1c2ccccc2C(=O)N(c2ccccc2)C1c1ccc(-c2ccoc2)s1 (stereo not shown) [Compound 47, 2-(5-(Furan-3-yl)thiophen-2-yl)-1-methyl-3-phenyl-2,3-dihydroquinazolin-4(1H)-one] | 49 |  | 
CCc1ccc(C2N(C)c3ccccc3C(=O)N2c2ccccc2)s1 (stereo not shown) [Compound 41, 2-(5-Ethylthiophen-2-yl)-1-methyl-3-phenyl-2,3-dihydroquinazolin-4(1H)-one] | 173 | 0.0% | 
Cc1ccc(C2Nc3ccccc3C(=O)N2c2ccccc2Cl)s1 (stereo not shown) [Compound 32, 3-(2-Chlorophenyl)-2-(5-methylthiophen-2-yl)-2,3-dihydroquinazolin-4(1H)-one] | 68 |  | 
Cc1ccc(C2N(C)c3ccccc3C(=O)N2c2ccccc2S(=O)(=O)c2ccccc2)s1 (stereo not shown) [Compound 60, 1-Methyl-2-(5-methylthiophen-2-yl)-3-(2-(phenylsulfonyl)phenyl)-2,3-dihydroquinazolin-4(1H)-one] | 320 |  | 
CN1c2ccccc2C(=O)N(c2ccccc2)C1c1ccc(Sc2ccccc2)s1 (stereo not shown) [Compound 44, 1-Methyl-3-phenyl-2-(5-(phenylthio)thiophen-2-yl)-2,3-dihydroquinazolin-4(1H)-one] | 71 |  | 
CSc1ccccc1N1C(=O)c2ccccc2NC1c1ccc(C)s1 (stereo not shown) [Compound 31, 3-(2-(Methylthio)phenyl)-2-(5-methylthiophen-2-yl)-2,3-dihydroquinazolin-4(1H)-one] | 99 |  | 
O=C1c2ccccc2NC(c2ccc(-c3cccs3)s2)N1c1ccccc1 (stereo not shown) [Compound 18, 2-([2,2′-Bithiophen]-5-yl)-3-phenyl-2,3-dihydroquinazolin-4(1H)-one] | 50 | 17.1% | 
CCc1ccc(C2Nc3ccccc3C(=O)N2c2ccccc2)s1 (stereo not shown) [Compound 7, 2-(5-Ethylthiophen-2-yl)-3-phenyl-2,3-dihydroquinazolin-4(1H)-one] | 120 | 13.5% | 
CSc1ccccc1N1C(=O)c2ccccc2N(C)C1c1ccc(C)s1 (stereo not shown) [Compound 57, 1-Methyl-3-(2-(methylthio)phenyl)-2-(5-methylthiophen-2-yl)-2,3-dihydroquinazolin-4(1H)-one] | 25 |  | 5.42
CN1c2ccccc2C(=O)N(c2ccccc2)C1c1ccc(CN=[N+]=[N-])s1 (stereo not shown) [Compound 62, 2-(5-(Azidomethyl)thiophen-2-yl)-1-methyl-3-phenyl-2,3-dihydroquinazolin-4(1H)-one] |  |  | 4.92
O=C1c2ccccc2NC(c2ccc(Br)s2)N1c1ccccc1 (stereo not shown) [Compound 9, 2-(5-Bromothiophen-2-yl)-3-phenyl-2,3-dihydroquinazolin-4(1H)-one] | 27.9 |  | 4.86

Compound | R (Stx), protective index (HeLa cells [1]) | retrograde transport, % control [2] | pIC50 (HeLa cells [3])
O=C1c2ccccc2NC(c2ccc(-c3ccco3)s2)N1c1ccccc1 (stereo not shown) [Compound 20, 2-(5-(Furan-2-yl)thiophen-2-yl)-3-phenyl-2,3-dihydroquinazolin-4(1H)-one] | 41 | 6.5% | 
Cc1nc(-c2ccc(C3Nc4ccc(F)cc4C(=O)N3c3ccccc3)s2)cs1 (stereo not shown) [Compound 34, 6-Fluoro-2-(5-(2-methylthiazol-4-yl)thiophen-2-yl)-3-phenyl-2,3-dihydroquinazolin-4(1H)-one] | 295 |  | 
CN1c2ccccc2C(=O)N(c2ccccc2)C1c1ccc(-c2ccccn2)s1 (stereo not shown) [Compound 37, 1-Methyl-3-phenyl-2-(5-(pyridin-2-yl)thiophen-2-yl)-2,3-dihydroquinazolin-4(1H)-one] | 111 | 10.3% | 
CSc1ccc(C2N(C)c3ccccc3C(=O)N2c2ccccc2)s1 (stereo not shown) [Compound 38, 1-Methyl-2-(5-(methylthio)thiophen-2-yl)-3-phenyl-2,3-dihydroquinazolin-4(1H)-one] | 60 | 18.2% | 
Cc1ccc(C2N(C)c3ccccc3C(=O)N2c2ccccc2-c2ccccc2)s1 (stereo not shown) [Compound 59, 3-([1,1′-Biphenyl]-2-yl)-1-methyl-2-(5-methylthiophen-2-yl)-2,3-dihydroquinazolin-4(1H)-one] | 27 |  | 5.43
Cc1ccc(C2Nc3ccc(F)cc3C(=O)N2c2ccccc2)s1 (stereo not shown) [Compound 25, 6-Fluoro-2-(5-methylthiophen-2-yl)-3-phenyl-2,3-dihydroquinazolin-4(1H)-one] | 133 |  | 
Cc1ccc(C2N(C)c3ccccc3C(=O)N2c2ccccc2C(=O)O)s1 (stereo not shown) [Compound 69, 2-(1-Methyl-2-(5-methylthiophen-2-yl)-4-oxo-1,4-dihydroquinazolin-3(2H)-yl)benzoic acid] |  |  | 4.95
O=C1c2ccccc2NC(c2ccc(-c3ccccc3)s2)N1c1ccccc1 (stereo not shown) [Compound 13, 3-Phenyl-2-(5-phenylthiophen-2-yl)-2,3-dihydroquinazolin-4(1H)-one] | 153 | 13.1% | 
O=C1c2ccccc2NC(c2ccc(-c3ccccn3)s2)N1c1ccccc1 (stereo not shown) [Compound 19, 3-Phenyl-2-(5-(pyridin-2-yl)thiophen-2-yl)-2,3-dihydroquinazolin-4(1H)-one] | 46 | 10.7% | 
CN1c2ccc(F)cc2C(=O)N(c2ccccc2)C1c1ccc(-c2csc(CN=[N+]=[N-])n2)s1 (stereo not shown) [Compound 64, 2-(5-(2-(Azidomethyl)thiazol-4-yl)thiophen-2-yl)-6-fluoro-1-methyl-3-phenyl-2,3-dihydroquinazolin-4(1H)-one] |  |  | > 5.52
Cc1ccc(C2N(C)c3ccccc3C(=O)N2c2ccccc2Cl)s1 (stereo not shown) [Compound 54, 3-(2-Chlorophenyl)-1-methyl-2-(5-methylthiophen-2-yl)-2,3-dihydroquinazolin-4(1H)-one] | 27 |  | 5.09
Cc1nc(-c2ccc(C3Nc4ccccc4C(=O)N3c3ccccc3)s2)cs1 (stereo not shown) [Compound 21, 2-(5-(2-Methylthiazol-4-yl)thiophen-2-yl)-3-phenyl-2,3-dihydroquinazolin-4(1H)-one] | 109 | 0.0% | 
Cc1ccc(C2N(C)c3ccccc3C(=O)N2c2ccccc2)s1 (stereo not shown) [Compound 35, 1-Methyl-2-(5-methylthiophen-2-yl)-3-phenyl-2,3-dihydroquinazolin-4(1H)-one] | 80 |  | 
Cc1nc(-c2ccc(C3N(C)c4ccc(F)cc4C(=O)N3c3ccccc3)s2)cs1 (stereo not shown) [Compound 61, 6-Fluoro-1-methyl-2-(5-(2-methylthiazol-4-yl)thiophen-2-yl)-3-phenyl-2,3-dihydroquinazolin-4(1H)-one] | 40 |  | 
Cc1nc(-c2ccc(C3N(C)c4ccccc4C(=O)N3c3ccccc3C(=O)c3ccccc3)s2)cs1 (stereo not shown) [Compound 65, 3-(2-Benzoylphenyl)-1-methyl-2-(5-(2-methylthiazol-4-yl)thiophen-2-yl)-2,3-dihydroquinazolin-4(1H)-one] |  |  | 5.52 to 6.00
Cc1nc(-c2ccc(C3N(C)c4ccc(F)cc4C(=O)N3c3ccccc3C(=O)c3ccccc3)s2)cs1 (stereo not shown) [Compound 66] |  |  | 6.00
CN1c2ccccc2C(=O)N(c2ccccc2)C1c1ccc(Br)s1 (stereo not shown) [Compound 43, 2-(5-Bromothiophen-2-yl)-1-methyl-3-phenyl-2,3-dihydroquinazolin-4(1H)-one] | 40 |  | 
Cc1ccc(C2N(C)c3ccccc3C(=O)N2c2ccccc2I)s1 (stereo not shown) [Compound 55, 3-(2-Iodophenyl)-1-methyl-2-(5-methylthiophen-2-yl)-2,3-dihydroquinazolin-4(1H)-one] | 25 |  | 5.27
COCCOc1ccccc1N1C(=O)c2ccccc2N(C)C1c1ccc(C)s1 (stereo not shown) [Compound 68, 3-(2-(2-Methoxyethoxy)phenyl)-1-methyl-2-(5-methylthiophen-2-yl)-2,3-dihydroquinazolin-4(1H)-one] |  |  | 5.38
